Data as given in patent US9216181B2 (Southwest Research Institute, priority 2011, dated 2015).

Key:
BMP-7 = assay: Study II real time PCR, BMP-7 up-regulation in mesenchymal stem cells; format: cell-based, human; settings: hMSC
Experimental: (§1) The testing procedure follows.
(§2) Cells based assays are done using 6 wells tissue culture plates, seeded with human mesenchymal stem cells (MSC) from Lonza, culture at 80% density. After seeding cells are treated with selected compounds at 10 μM, 5 μM and 2.5 μM for a 24 hour period, mRNA is collected using Qiagen kit RNAeasy kit and cDNA is prepared with same Qiagen kit, RT-PCR is done using kit from SABiosciences to measure gene expression for BMP2, 4 and 7 and run in Applied Biosystems Step One Plus. The protocol for mRNA isolation is described below.
(§3) Human mesenchymal stem cell growth medium passage 3 plated in a 6 well plate at 2.5×10^5 cells/well in hMSC Basal Medium+BulletKit (50 ml Growth Supplement, 10 ml L-Glutamine and 0.5 ml Gentamicin Sulfate Amphotericin-B) for 24 hrs. The compounds to be tested were added and after 24 hrs the media was aspirated, rinsed well once with PBS, and aspirated again. 350 ul of Lysis Buffer was added and the cells were stored at −20° C.
(§4) The lysate was homogenized by pipetting the lysate directly into a QIA shredder spin column placed in a 2-mL collection tube, and centrifuge for 2 min at full speed. 70% ethanol was added (1 vol. or […]) to the homogenized lysate (now at the bottom of the collection tube), and mixed well by pipetting. Up to 700 μL of the sample was transferred, including any precipitate that may have formed, to an RNeasy spin column placed in a 2-mL collection tube. This was centrifuged for 15 seconds at full speed. 700 μL of Buffer RW1 was added to the RNeasy spin column. This was centrifuged for 15 seconds at full speed to wash the spin column membrane.
(§5) 500 μL of Buffer RPE was added to the RNeasy spin column and centrifuged for 15 seconds at full speed. The flow through was discarded. 500 μL of Buffer RPE was added to the RNeasy spin column and centrifuged for 2 minutes at full speed to wash the spin column membrane. The RNeasy spin column was removed from the collection tube and the flow-through was discarded.
(§6) The RNeasy spin column was placed in a new 2-mL collection tube and centrifuged for 1 minute at full speed. The RNeasy spin column was removed from the collection tube, and the flow-through was discarded. The RNeasy spin column was placed in a new 1.5-mL collection tube. 30-50 μL of RNase-free water was added directly to the spin column membrane and this was centrifuged for 1 minute at full speed to elute the RNA.

BMP2 = assay: Quantitative PCR (TaqMan, ΔΔCt) of BMP2 in human mesenchymal stem cells; format: cell-based; settings: Homo sapiens, Mesenchymal stem cells; BMP2 mRNA, hMSC, 10 μM, vs untreated, 18S reference; BIOMOL library (Table 2); read-out: q-PCR Fold increase
Experimental: Human mesenchymal stem cells (LONZA, Catalog PT2501) were maintained in Mesenchymal stem cells basal media (MSCBM CAT#PT-3238). Early passage cells were plated in triplicate at 2×10^4 cells/cm^2 using six well tissue culture plates and grown in humidified 5% CO2 at 37° C. for 24 hours. Spent media was replaced by assay media of drugs to be tested in same media as above at 10 μM final concentration. Untreated cells were used as the control group. Total RNA were prepared using either TRI Reagent (Ambion, Cat. 9738), for subsequent TaqMan gene expression qPCR of BMP2. RNA concentration and integrity was assessed by absorbance 260/280 and electrophoresis in 1% Agarose with formaldehyde loading dye. For TaqMan gene expression, cDNA was synthesized from 2 μg of total RNA using the High Capacity cDNA Reverse Transcription Kit (Applied Biosystems, Cat. 4368814). The resulting cDNA were diluted 1:100 for TaqMan and amplified by real-time quantitative PCR. Gene-specific fluorescent labeled TaqMan primers for FAM-BMP2 (Applied Biosystems, Hs00154192.m1) and TaqMan reference VIC-18S ribosomal RNA (Applied Biosystems, 4310893E) were used to target gene of interest. A cocktail of universal master mix (Applied Biosystems, 4369016) were prepared individually for both set of primers which contained Taq Polymerase, dNTPs, and buffer. Template cDNA's were added separately to respective individual wells in triplicate samples. The PCR were performed on StepOne Plus Real Time System instrument (Applied Biosystems). The amplification program consisted of 1 cycle of 95° C. with 10 minute hold (hot start) followed by 50 cycles of 95° C. with 15 second annealing hold and 1 minute 60° C. specified acquisition hold. The Ct value of endogenous reference gene (i.e. 18 s) was used to control for input RNA and then used to normalize target gene (i.e. BMP2) tested from the same cDNA sample to calculate the Δ Ct, and then calibrated to an internal reference sample. Change in gene expression was determined by the expression ΔΔCt relative method.
18 compounds were confirmed positive by the more stringent qPCR techniques. […] Included in the tables is the target or common medical use for each compounds.

BMP-2 [1] = assay: Real time PCR of BMP-2 gene expression in human MSC (Cells-to-Ct); format: cell-based; settings: BMP-2 mRNA, hMSC, 5-10 μM, 24 hours, vs untreated; BIOMOL library (Table 2)
Experimental: Early passage human mesenchymal stem cells (MSC) were thawed from one frozen cryo-vial and seeded into two T-75 tissue culture flasks and incubated at 37° C. for 48 hours in Alpha MEM with 10% FBS. After three days and one re-feeding, the cells were trypsinized and re-suspended in pre-warmed media at 5×10^4 cells/mL to provide 5,000 cells per well in a 96 well plate and incubated overnight at 37° C. in 5% CO2.
Each well was washed in cold PBS, lysed at room temperature for five minutes, and stop reagent added to each well to stop the lysis reaction. The final lysate was kept cold at 4° C. and used immediately as the RNA template for the reverse transcription cDNA synthesis following the TAQMAN GENE EXPRESSION CELLS TO CT KIT instructions.
The cDNA synthesis was prepared on a separate sterile 96-well PCR plate and performed on the Step One Plus Real Time PCR System instrument (Applied Biosystems) with the programming set at 37° C. for 60 minutes and an inactivation hold of 95° C. for five minutes. The final cDNA reaction was kept cold and used as the template for the TAQMAN GENE Real-Time PCR step following the recommended instructions for TAQMAN GENE EXPRESSION CELLS TO CT KIT assay. […] Template cDNA's were added separately to respective individual wells in replicate samples.
The PCR was performed on the STEPONEPLUS Real-Time System instrument (Applied Biosystems). The amplification program consisted of 1 cycle of 95° C. with 10 minute hold (hot start) and followed by 50 cycles of 95° C. with 15-second annealing hold and 1-minute 60° C. specified acquisition hold.

BMP-4 = assay: Study II real time PCR, BMP-4 up-regulation in mesenchymal stem cells; format: cell-based, human; settings: hMSC, 24 hour, 2.5, 5 and 10 μM tested
Experimental: as §1, §2, §3, §4, §5
The RNeasy spin column was placed in a new 2-mL collection tube and centrifuged for 1 minute at full speed. […]

BMP-2 [2] = assay: Study II real time PCR, BMP-2 up-regulation in mesenchymal stem cells; format: cell-based, human; settings: hMSC; for BMP-2 Fold Increase/Dose / BMP-2 fold increases (in words): 24 hour
Experimental: as §1, §2, §3, §4, §5, §6

murine calvaria bone = assay: Anabolic assay using murine calvaria, histology (Study II); format: cell-based, mouse; settings: calvaria of 4 day old pups, 5-20 μM, day 4 and day 7, 10× microscopy
Experimental: To investigate the biological effects on bone of the compounds from the PCR assays a number of assays were performed using murine calvaria bone as follows. Following procedures similar to those outlined above in Study I, murine calvaria bone was removed from 4 day old pups form CD-1 time pregnant mice from Harlan (15 day gestation at time of arrival). The pups were decapitated with scissors after dipping the pups in 95% ethanol. The scalp was then removed. The heads were placed in a Petri dish with BGJ medium. The calvaria bones were cut using curved scissors to make a cut along the suture of the calvaria bone and the two parts were carefully removed from the brain. The calvaria were trimmed avoiding the suture area. The collected tissue was placed into media (3 bones per group) including BGJ+L-Glutamine with 1% Pen/Strep and 1% BSA. The dish including the bones was placed into a 37° C. and 5% CO2 incubator.
The selected compounds were prepared in a solution of dimethyl sulfoxide (DMSO) to form stock solutions of each compound, with the exception of terfenadine, which was prepared in ethanol. Specifically, a 10 mM stock solution was prepared for PS1, a 25 mM stock solution was prepared for carebastine and a 50 mM stock solution was prepared for ebastine, #6 terfenadine, fexofenadine and astemizole. […]

[3] = tested on: human mesenchymal stem cells (MSC); format: cell-based; design: key: *: Dose caused cell death; settings: 10 uM, hMSC, 24 hrs

COc1ccc(CCN2CCC(Nc3nc4ccccc4n3Cc3ccc(F)cc3)CC2)cc1 [Astemizole]
BMP-7 Fold Increase/Dose (BMP-7; 2.5 μM, 24 hour): ~8/2.5 fold | BMP-7 fold increases (in words) (BMP-7; 24 hour): exhibit BMP-7 fold increases | fold induction at 10 µM (BMP2): 1 | RT PCR Fold increase (BMP-2 [1]): 156.2 fold | BMP-4 Fold Increase/Dose (BMP-4): None | BMP-2 Fold Increase/Dose (BMP-2 [2]; 5 μM): ~30 fold | BMP-2 Fold Increase/Dose (BMP-2 [2]; 10 μM): ~7 fold | BMP-2 fold increases (in words) (BMP-2 [2]): exhibit BMP-2 fold increases

CC(C)(C(=O)O)c1ccc(C(=O)CCCN2CCC(OC(c3ccccc3)c3ccccc3)CC2)cc1 [Carebastine]
activity in bone calvaria assay / effect on BMP-2 gene expression, qualitative histology (murine calvaria bone): relatively active | fold change (PCR) (BMP-2 [2]; 24 hour, 2.5, 5 and 10 μM): ≤ 1 fold

CC(C)(C)c1ccc(C(=O)CCCN2CCC(OC(c3ccccc3)c3ccccc3)CC2)cc1 [Ebastine]
BMP-7 Fold Increase/Dose (BMP-7; 10 μM, 24 hour): ~3/10 fold | BMP-7 fold increases (in words) (BMP-7; 24 hour): exhibit BMP-7 fold increases | cell death [3]: *Ebastine | BMP-4 Fold Increase/Dose (BMP-4): None | BMP-2 Fold Increase/Dose (BMP-2 [2]; 10 μM): ~8/10 μM fold | BMP-2 fold increases (in words) (BMP-2 [2]): exhibit BMP-2 fold increases

CN(C)CCC(c1ccccc1)c1ccccn1 (centres unmarked) [Pheniramine]
BMP-7 Fold Increase/Dose (BMP-7; 24 hour, 2.5, 5 and 10 μM tested, no dose stated): None | BMP-4 Fold Increase/Dose (BMP-4): None | BMP-2 Fold Increase/Dose (BMP-2 [2]; 10 μM): ~2/10 μM fold | BMP-2 fold increases (in words) (BMP-2 [2]): exhibit BMP-2 fold increases
